Data from ChEMBL document CHEMBL5154806, “Synthesis and Profiling of Highly Selective Inhibitors of Methyltransferase DOT1L Based on Carbocyclic C-Nucleosides” (J Med Chem, 2022).
Each block holds one compound with its values, some of them ahead of it. The source made the active and inactive calls. The rule behind the calls is not given here.

What was measured:
[1] = Elimination rate constant in fasted BALB/c mouse at 20 mg/kg, po administered upto 600 mins by HPLC-MS/MS analysis; format: ADME, organism-based; conditions: in vivo
[2] = AUC (0 to infinity) in fasted BALB/c mouse at 20 mg/kg, iv administered upto 600 mins by HPLC-MS/MS analysis; format: ADME, organism-based; set-up: dose 20 mg/kg, time < 600 min, route iv; conditions: in vivo
[3] = Cmax in fasted BALB/c mouse at 20 mg/kg, iv administered upto 600 mins by HPLC-MS/MS analysis; format: ADME, organism-based; set-up: time < 600 min, dose 20 mg/kg, route iv; conditions: in vivo
[4] = AUC (0 to infinity) in fasted BALB/c mouse at 20 mg/kg, po administered upto 600 mins by HPLC-MS/MS analysis; format: ADME, organism-based; set-up: dose 20 mg/kg, time < 600 min, route po; conditions: in vivo
[5] = Tmax in fasted BALB/c mouse at 20 mg/kg, iv administered upto 600 mins by HPLC-MS/MS analysis; format: ADME, organism-based; conditions: in vivo
[6] = Elimination rate constant in fasted BALB/c mouse at 20 mg/kg, iv administered upto 600 mins by HPLC-MS/MS analysis; format: ADME, organism-based; conditions: in vivo
[7] = Tmax in fasted BALB/c mouse at 20 mg/kg, po administered upto 600 mins by HPLC-MS/MS analysis; format: ADME, organism-based; conditions: in vivo
[8] = AUC (0 to t) in fasted BALB/c mouse at 20 mg/kg, po administered upto 600 mins by HPLC-MS/MS analysis; format: ADME, organism-based; set-up: dose 20 mg/kg, time < 600 min, route po; conditions: in vivo
[9] = Cmax in fasted BALB/c mouse at 20 mg/kg, po administered upto 600 mins by HPLC-MS/MS analysis; format: ADME, organism-based; set-up: time < 600 min, dose 20 mg/kg, route po; conditions: in vivo
[10] = Volume of distribution in fasted BALB/c mouse at 20 mg/kg, iv administered upto 600 mins by HPLC-MS/MS analysis; format: ADME, organism-based; conditions: in vivo
[11] = Half life in fasted BALB/c mouse at 20 mg/kg, po administered upto 600 mins by HPLC-MS/MS analysis; format: ADME, organism-based; conditions: in vivo
[12] = Clearance in fasted BALB/c mouse at 20 mg/kg, iv administered upto 600 mins by HPLC-MS/MS analysis; format: ADME, organism-based; conditions: in vivo
[13] = AUC (0 to t) in fasted BALB/c mouse at 20 mg/kg, iv administered upto 600 mins by HPLC-MS/MS analysis; format: ADME, organism-based; set-up: dose 20 mg/kg, time < 600 min, route iv; conditions: in vivo
[14] = Bioavailability in fasted BALB/c mouse at 20 mg/kg, iv administered upto 600 mins by HPLC-MS/MS analysis; format: ADME, organism-based; conditions: in vivo
[15] = Half life in fasted BALB/c mouse at 20 mg/kg, iv administered upto 600 mins by HPLC-MS/MS analysis; format: ADME, organism-based; conditions: in vivo
[16] = target: T1, Histone-lysine N-methyltransferase, H3 lysine-79 specific (Homo sapiens, UniProt Q8TEK3); assay: Binding affinity to human DOT1L assessed as binding free energy difference
Target sequence in this assay (Q8TEK3 whole entry, looked up): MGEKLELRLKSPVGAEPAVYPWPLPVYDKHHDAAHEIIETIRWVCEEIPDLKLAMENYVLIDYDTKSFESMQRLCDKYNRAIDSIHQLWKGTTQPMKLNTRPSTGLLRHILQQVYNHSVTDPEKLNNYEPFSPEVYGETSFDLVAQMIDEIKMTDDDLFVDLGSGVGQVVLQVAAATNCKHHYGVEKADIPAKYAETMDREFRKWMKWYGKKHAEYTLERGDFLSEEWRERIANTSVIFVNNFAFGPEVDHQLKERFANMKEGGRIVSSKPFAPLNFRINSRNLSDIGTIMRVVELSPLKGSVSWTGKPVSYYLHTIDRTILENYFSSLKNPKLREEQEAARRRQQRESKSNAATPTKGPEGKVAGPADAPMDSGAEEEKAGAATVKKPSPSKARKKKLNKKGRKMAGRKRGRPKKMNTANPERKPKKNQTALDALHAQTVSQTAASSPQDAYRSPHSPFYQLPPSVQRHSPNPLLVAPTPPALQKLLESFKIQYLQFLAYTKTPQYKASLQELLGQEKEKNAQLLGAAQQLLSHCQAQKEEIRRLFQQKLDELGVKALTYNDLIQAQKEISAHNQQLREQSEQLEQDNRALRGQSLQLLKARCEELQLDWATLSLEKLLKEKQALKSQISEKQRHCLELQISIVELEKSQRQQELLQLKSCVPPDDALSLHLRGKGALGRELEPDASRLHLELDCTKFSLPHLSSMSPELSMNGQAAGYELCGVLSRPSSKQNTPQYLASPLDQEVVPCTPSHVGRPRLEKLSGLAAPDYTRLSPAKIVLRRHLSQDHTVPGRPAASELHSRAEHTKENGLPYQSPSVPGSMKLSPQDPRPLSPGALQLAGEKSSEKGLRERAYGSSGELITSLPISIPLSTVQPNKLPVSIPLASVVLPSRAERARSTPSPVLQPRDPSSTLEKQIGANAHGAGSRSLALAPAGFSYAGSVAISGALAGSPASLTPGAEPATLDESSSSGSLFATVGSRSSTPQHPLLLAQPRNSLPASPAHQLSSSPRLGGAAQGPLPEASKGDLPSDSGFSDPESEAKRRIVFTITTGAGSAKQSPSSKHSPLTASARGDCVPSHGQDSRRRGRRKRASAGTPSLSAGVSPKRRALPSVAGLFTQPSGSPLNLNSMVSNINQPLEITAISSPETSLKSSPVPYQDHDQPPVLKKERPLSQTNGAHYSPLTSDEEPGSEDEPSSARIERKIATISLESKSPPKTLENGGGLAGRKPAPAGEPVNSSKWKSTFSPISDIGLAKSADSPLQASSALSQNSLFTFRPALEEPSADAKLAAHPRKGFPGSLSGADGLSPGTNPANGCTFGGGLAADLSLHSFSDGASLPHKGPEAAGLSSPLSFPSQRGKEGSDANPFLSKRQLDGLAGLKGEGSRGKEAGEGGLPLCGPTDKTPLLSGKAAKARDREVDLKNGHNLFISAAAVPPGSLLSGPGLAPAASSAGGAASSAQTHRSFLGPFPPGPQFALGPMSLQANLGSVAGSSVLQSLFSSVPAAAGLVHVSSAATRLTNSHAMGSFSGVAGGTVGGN

[17] = target: T1, Histone-lysine N-methyltransferase, H3 lysine-79 specific; assay: Inhibition of human DOT1L by hotspot PMT activity assay
Target sequence in this assay (Q8TEK3 whole entry): as the sequence (Q8TEK3 whole entry, looked up) above

[18] = target: T1, Histone-lysine N-methyltransferase, H3 lysine-79 specific; assay: Inhibition of DOT1L in human SU-DHL-4 cells assessed as decrease in H3K79 methylation at 1 to 10 uM using histone H3 as substrate incubated for 5 days by immunoblotting assay; format: cell-based; conditions: dose 1-10 µM, time 5.0 day, DDE = dose-dependent effect
Target sequence in this assay (Q8TEK3 whole entry, looked up): as above

[19] = target: T1, Histone-lysine N-methyltransferase, H3 lysine-79 specific; assay: Inhibition of DOT1L in human MOLM-13 cells assessed as decrease in H3K79 methylation at 1 to 10 uM using histone H3 as substrate incubated for 5 days by immunoblotting assay; format: cell-based; conditions: dose 1-10 µM, time 5.0 day, DDE = dose-dependent effect
Target sequence in this assay (Q8TEK3 whole entry, looked up): as above

[20] = Acute toxicity in BALB/c mouse assessed as mild tremor at 5 mg/kg,iv measured after 6 to 7 mins; format: organism-based; conditions: in vivo, time 6-7 min
[21] = Acute toxicity in BALB/c mouse assessed as respiratory failure at 5 mg/kg,iv measured after 6 to 7 mins; format: organism-based; conditions: in vivo, time 6-7 min
[22] = Elimination rate constant in fasted BALB/c mouse at 5 mg/kg, iv administered upto 600 mins by HPLC-MS/MS analysis; format: ADME, organism-based; conditions: in vivo, iv, 5 mg/kg, 10 h
[23] = target: T1, Histone-lysine N-methyltransferase, H3 lysine-79 specific; assay: Inhibition of DOT1L in human MOLM-13 cells assessed as decrease in H3K79 methylation at 1 to 10 uM using histone H3 as substrate incubated for 3 days by immunoblotting assay; format: cell-based; conditions: dose 1-10 µM, time 3.0 day, DDE = dose-dependent effect
Target sequence in this assay (Q8TEK3 whole entry, looked up): as above

[24] = target: T1, Histone-lysine N-methyltransferase, H3 lysine-79 specific; assay: Inhibition of DOT1L in human OCI-AML5 cells assessed as decrease in H3K79 methylation at 1 to 10 uM using histone H3 as substrate incubated for 3 days by immunoblotting assay; format: cell-based; conditions: dose 1-10 µM, time 3.0 day, DDE = dose-dependent effect
Target sequence in this assay (Q8TEK3 whole entry, looked up): as above

[25] = Acute toxicity in BALB/c mouse assessed as death at 10 to 20 mg/kg,iv; format: organism-based; conditions: in vivo, dose 10-20 mg/kg
[26] = target: T1, Histone-lysine N-methyltransferase, H3 lysine-79 specific; assay: Inhibition of DOT1L in human OCI-AML5 cells assessed as decrease in H3K79 methylation at 1 to 10 uM using histone H3 as substrate incubated for 5 days by immunoblotting assay; format: cell-based; conditions: dose 1-10 µM, time 5.0 day, DDE = dose-dependent effect
Target sequence in this assay (Q8TEK3 whole entry, looked up): as above

MOLM-13 [27] = assay: Cytotoxicity against human MOLM-13 cells assessed as reduction of cell viability at 1 to 40 uM incubated for 5 to 15 days by DiOC6/ propidium staining based flow cytometry analysis; format: functional; conditions: dose 1-40 µM, time 5-15 day
[28] = AUC (0 to t) in fasted BALB/c mouse at 5 mg/kg, iv administered upto 600 mins by HPLC-MS/MS analysis; format: ADME, organism-based; set-up: time < 600 min, dose 5 mg/kg, route iv; conditions: in vivo
[29] = Clearance in fasted BALB/c mouse at 5 mg/kg, iv administered upto 600 mins by HPLC-MS/MS analysis; format: ADME, organism-based; conditions: in vivo
MOLM-13 [30] = assay: Cytotoxicity against human MOLM-13 cells assessed as metabolic activity at 1 to 40 uM incubated for 5 to 15 days by WST-1 assay; format: functional, cell-based; conditions: dose 1-40 µM, time 5-15 day
[31] = Acute toxicity in BALB/c mouse at 10 to 20 mg/kg,iv; format: organism-based; conditions: in vivo, dose 10-20 mg/kg
[32] = AUC (0 to infinity) in fasted BALB/c mouse at 5 mg/kg, iv administered upto 600 mins by HPLC-MS/MS analysis; format: ADME, organism-based; set-up: dose 5 mg/kg, time < 600 min, route iv; conditions: in vivo
[33] = target: T1, Histone-lysine N-methyltransferase, H3 lysine-79 specific; assay: Inhibition of DOT1L in human SU-DHL-4 cells assessed as decrease in H3K79 methylation at 1 to 10 uM using histone H3 as substrate incubated for 3 days by immunoblotting assay; format: cell-based; conditions: dose 1-10 µM, time 3.0 day, DDE = dose-dependent effect
[34] = Volume of distribution in fasted BALB/c mouse at 5 mg/kg, iv administered upto 600 mins by HPLC-MS/MS analysis; format: ADME, organism-based; conditions: in vivo
OCI-AML-3 [35] = assay: Cytotoxicity against human OCI-AML-3 cells assessed as reduction of cell viability at 1 to 40 uM incubated for 5 to 15 days by WST-1 assay; format: functional, cell-based; conditions: dose 1-40 µM, time 5-15 day
[36] = Half life in fasted BALB/c mouse at 5 mg/kg, iv administered upto 600 mins by HPLC-MS/MS analysis; format: ADME, organism-based; conditions: in vivo, iv, 5 mg/kg, 10 h
OCI-AML-3 [37] = assay: Cytotoxicity against human OCI-AML-3 cells assessed as reduction of cell viability at 1 to 40 uM incubated for 5 to 15 days by DiOC6/ propidium staining based flow cytometry analysis; format: functional; conditions: dose 1-40 µM, time 5-15 day
[38] = Cmax in fasted BALB/c mouse at 5 mg/kg, iv administered upto 600 mins by HPLC-MS/MS analysis; format: ADME, organism-based; set-up: time < 600 min, dose 5 mg/kg, route iv; conditions: in vivo
[39] = Tmax in fasted BALB/c mouse at 5 mg/kg, iv administered upto 600 mins by HPLC-MS/MS analysis; format: ADME, organism-based; conditions: in vivo

Structure (SMILES): CN(CCCNC(=O)Nc1ccccc1)C[C@H]1C[C@@H](c2cnn3c(N)ccnc23)[C@H](O)[C@@H]1O
- deltaG [16]: 2.63 kcal/mol

Structure (SMILES): CC(C)N(C[C@H]1C[C@@H](c2ccc3c(N)ncnn23)[C@H](O)[C@@H]1O)[C@H]1C[C@H](CCc2nc3cc(C(C)(C)C)ccc3[nH]2)C1 (racemic)
- IC50 [17]: 13.8 nM

Structure (SMILES): CN(CCCNC(=O)Nc1ccc(C(C)(C)C)cc1)C[C@H]1C[C@@H](c2ccc3c(N)ncnn23)[C@H](O)[C@@H]1O (stereo in doubt; (-)-25)
- k el at 10 h [1]: 0.0017 s⁻¹
- AUC(0-inf) [2]: 3080 ng·h/mL
- Cmax [3]: 8320 ng/mL
- AUC(0-inf) [4]: 8.53 ng·h/mL
- IC50 [17]: 19 nM
- Tmax [5]: 5 min
- k el at 10 h [6]: 9.82e-05 s⁻¹
- Tmax [7]: 5 min
- AUC(0-t) at 10 h [8]: 8.07 ng·h/mL
- Cmax [9]: 36.4 ng/mL
- Vd [10]: 18.4 L/kg
- half-life [11]: 6.78 min
- clearance [12]: 108 mL/min/kg
- AUC(0-t) at 10 h [13]: 3020 ng·h/mL
- bioavailability [14]: 0.3%
- half-life [15]: 118 min

Structure (SMILES): CC(C)N(C[C@@H]1C[C@H](c2ccc3c(N)ncnn23)[C@@H](O)[C@H]1O)[C@H]1C[C@@H](CCc2nc3cc(C(C)(C)C)ccc3[nH]2)C1
- IC50 [17]: 80 nM

Structure (SMILES): CC(C)N(C[C@H]1O[C@@H](n2cnc3c(N)ncnc32)[C@H](O)[C@@H]1O)[C@H]1C[C@@H](CCc2nc3cc(C(C)(C)C)ccc3[nH]2)C1 [PINOMETOSTAT]
- Activity [18]: Dde
- Activity [19]: Dde
- Activity [20]: Toxic
- Activity [21]: Toxic
- Kel [22]: 0.00161 min⁻¹
- Activity [23]: Dde
- Activity [24]: Dde
- Activity [25]: Toxic
- Tmax [7]: 5 min
- Activity [26]: Dde
- Activity (MOLM-13 [27]): Active
- AUC(0-t) at 10 h [28]: 4830 ng·h/mL
- clearance [29]: 17.1 mL/min/kg
- Activity (MOLM-13 [30]): Active
- Activity [31]: Toxic
- AUC(0-inf) [32]: 4870 ng·h/mL
- AUC(0-t) at 10 h [8]: 0.662 ng·h/mL
- Activity [33]: Dde
- Cmax [9]: 15.9 ng/mL
- Vd [34]: 1.07 L/kg
- Activity (OCI-AML-3 [35]): Active
- t1/2 [36]: 43.2 min
- Activity (OCI-AML-3 [37]): Active
- Cmax [38]: 13900 ng/mL
- Tmax [39]: 5 min

Now from value to compound:

- k el at 10 h [1]: 0.000257 s⁻¹
- AUC(0-inf) [2]: 14200 ng·h/mL
- Cmax [3]: 40800 ng/mL
- AUC(0-inf) [4]: 1300 ng·h/mL
- Tmax [5]: 5 min
- k el at 10 h [6]: 0.0001 s⁻¹
- Tmax [7]: 120 min
- AUC(0-t) at 10 h [8]: 1200 ng·h/mL
- Cmax [9]: 561 ng/mL
- Vd [10]: 3.88 L/kg
- half-life [11]: 44.9 min
- clearance [12]: 23.3 mL/min/kg
- AUC(0-t) at 10 h [13]: 14200 ng·h/mL
- bioavailability [14]: 9%
- half-life [15]: 115 min
Structure (SMILES): CC(C)NC[C@H]1C[C@@H](c2ccc3c(N)ncnn23)[C@H](O)[C@@H]1O

- deltaG [16]: -0.717 kcal/mol
Structure (SMILES): CC(C)N(CCCNC(=O)Nc1ccccc1)C[C@H]1C[C@@H](c2ccc3c(N)ncnn23)[C@H](O)[C@@H]1O

- IC50 [17]: > 10000 nM
Structure (SMILES): CC(C)N(CCCNC(=O)NC12CC3CC(CC(C3)C1)C2)C[C@H]1C[C@@H](c2ccc3c(N)ncnn23)[C@H](O)[C@@H]1O

- IC50 [17]: > 10000 nM
Structure (SMILES): Nc1ncnn2c([C@@H]3C[C@H](CO)[C@@H](O)[C@H]3O)ccc12
